The nature of the data set: Aqueous solubility of phosphate prodrugs compared with parent compounds. The format is physicochemical. The note with it: compounds of Examples in the form of their disodium salts.
The mark [1] stands for this setting: water (aqueous), read-out: Solubility.

Like-named read-outs stand apart in the source and are kept apart here.

A word on the solubility: it is the concentration that dissolves in the medium under given conditions.

Take `O=P(O)(O)OC(Cn1cncn1)(Cn1cncn1)c1ccc(F)cc1F` [Example 1, 2-(2,4-Difluorophenyl)-1,3-bis(1H-1,2,4-triazol-1-yl)-2-propyl Dihydrogen Phosphate]: the solubility under setting [1] is more than 150 mg/mL.

On to `C[C@@H](c1ncncc1F)[C@@](Cn1cncn1)(OP(=O)(O)O)c1ccc(F)cc1F` [Example 3, (2R,3S)-2-(2,4-Difluorophenyl)-3-(5-fluoro-4-pyrimidinyl)-1-(1H-1,2,4-triazol-1-yl)-2-butyl dihydrogen phosphate], for which the solubility under setting [1] was more than 150 mg/mL. For `C[C@@H](c1ccc(-c2ccnn2C)cc1)[C@@](Cn1cncn1)(OP(=O)([O-])[O-])c1ccc(F)cc1F.[Na+].[Na+]` [Example 8, (2R,3S)-2-(2,4-Difluorophenyl)-3-[4-(1-methylpyrazol-5-yl)phenyl]-1-(1,2,4-triazol-1-yl)-2-butyl disodium phosphate], the “solubility” value was more than 50 mg/mL.

The values above are taken from patent publication US6790957B2, “Triazole derivatives useful in therapy” (Pfizer, Inc., priority 1996, dated 2004).
